This test relates to iNOS. The experiment in a line: LPS-induced iNOS mRNA in RAW 264.7 macrophages (RT-PCR). Format: cell-based, mouse. As to conditions: RAW 264.7, LPS 3 hours, C10 in DMSO or vehicle B. As for the experimental part:
In macrophages NO production occurs as a result of LPS induction of iNOS (C. Bogdan, Nat Immunol, 2:907-16 (2001)) and is a process that depends on autocrine signaling by IFN-β. We used standard reverse transcriptase polymerase chain reaction to detect the inhibition of LPS induced iNOS transcription in the presence of C10 (FIG. 13A). The RAW 264.7 cells were treated with LPS in the presence of C10, its vehicle control, DMSO, or another excipient vehicle (compound B; see Table 8) for 3 hours. Table 8 establishes that C10 is effective in vivo in the mouse toxic shock model and in FRTL-5 cell assays in vitro when solubilized in water in the presence of the compound B excipient, i.e., water soluble forms of C10 are effective in both in vivo and in vitro just as C10 in DMSO. In the presence of DMSO control (FIG. 13A, lane 4) or vehicle B only (FIG. 13A, lane 5) little or no iNOS reduction was detected respectively when compared to LPS only (FIG. 13A lane 3).
Standard reverse transcriptase PCR for INOS: RNA was isolated as described above and treated with DNAse a described above. […] of DNA free RNA was then reverse transcribed with the Advantage® RT-for PCR kit (BD Biosciences, Palo Alto, Calif.) in a total volume of 20 μl. Five μl of cDNA was then amplified using ExTaq™ DNA polymerase (Takara, Madison, Wis.) in a reaction volume of 25 μl. […]

The structures appear in SMILES notation.

As for `Cn1c(-c2ccccc2)cnc1S` [Compound C10, 5-Phenylmethimazole], the “LPS induced iNOS mRNA” value is “strong reduction”.

(Values after patent US9326972B2, “Use of phenylmethimazoles, methimazole derivatives, and tautomeric cyclic thiones for the treatment of autoimmune/inflammatory diseases associated with toll-like receptor overexpression” (Ohio University, priority 2004, dated 2016).)
